Several values for one entry are separate records, joined by “and”; a condition that tells them apart may be missing. Identical values can stand only once. Counter-ions that a name gives are not always drawn. Like-named read-outs stand apart in the source and are kept apart here.
What was measured:
[1] = system: human plasma; type: biochemical; settings: for PT (effect in words): in vitro
[2] = system: human plasma; type: biochemical; settings: for PTT (effect in words): in vitro; for PTT(seconds) Exp. 2 A: Active Agent 0.5/ml, test sequences A and B, control 50.5 (A), 44.5 (B)
[3] = system: thrombus formation in the jugular vein; assay: I 125 fibrinogen technique, damaged jugular vein (venous thrombosis), continuous infusion; type: in vivo, rabbits; settings: continuous infusion for five hours
Procedure: The anti venous thrombotic effect of sodium bisulfite is evaluated in rabbits by using I ^125 fibrinogen technique as described in an article in "Archives of Surgery" Vol. 104, pg. 152 (1972).
The rabbit was continuously infused with aqueous sodium bisulfite solution at the rate of […]. (5.154 gram per hour) (animal body weight 2.3 kg) for a time of five hours. After 5 hours, the animal was sacrificed and the radioactive fibrinogen accumulated in the damaged jugular vein was determined. The radioactivity on the contra-lateral (undamaged) jugular vein was also determined to serve as a control. Concurrently, another rabbit had experienced the same procedure but received only a standard sodium chloride solution as a control. The rabbit from the normal saline solution has seven times as much radioactivity as his counterpart infused with sodium bisulfite.
Two jugular veins on a normal, healthy rabbit are exposed and one of the veins is systematically damaged by clamping in two longitudinally spaced places. The rabbit is then continuously infused with aqueous sodium formaldehyde bisulfite at the rate of […] (5.154 gram per hour) (animal body weight 2.3 kg). The rabbit is then injected with fibrinogen labeled with I^125. After 5 hours, the damaged jugular vein is evaluated for radioacive count with a Geiger counter.
This iodine 125 evaluation technique is described by Kakkar in Archieves of Surgery, Vol. 104, pg. 152 (1972) and by Kelton, J.G. et al, Journal of Clinical Investigation, Vol. 62, pgs. 892-895, (1978). […] Other rabbits, similarly evaluated, died, apparently because of overdose by the infustion technique.

[4] = coded agents 0.5mg/ml, […], control 12.92
[5] = coded agents 0.5mg/ml, […], control 43.38
[6] = amine bisulfites, control plasma 12.8 / 13.1
[7] = amine bisulfites, control plasma 13.1 / 13.0
[8] = amine bisulfites, control plasma 37.5 / 38.2
[9] = amine bisulfites, control plasma 37.8 / 39.2
[10] = amine hydrochlorides, control plasma 12.5
[11] = amine hydrochlorides, control plasma 13.0
[12] = amine hydrochlorides, control plasma 31.2
[13] = amine hydrochlorides, control plasma 31.3
[14] = 0.5 mg/ml, two different days, control 42.6 / 42.10
[15] = amine hydrochlorides, control plasma 13.5

Molecule: Na-phosphite [reference compound]
- PT ([1]; 0.5 mg/ml, two different days, control 13.40): 12.9 s

Molecule: CN1CCOCC1 [4-METHYL MORPHOLINE]
- PT REPLICATIONS 1 [1]: 21.3
- PT REPLICATIONS 2 [1]: 21.5
- PT REPLICATIONS 3 [1]: 20.4
- PTT REPLICATIONS 1 [2]: 63.5
- PTT REPLICATIONS 2 [2]: 61.3
- PTT REPLICATIONS 3 [2]: 60.6

Molecule: O=C(O)/C(O)=C(/O)C(=O)O [Example A3, Dihydroxymaleic acid 2 H2O, reference compound]
- PT [1, 4]: 14.95 s
- PTT [2, 5]: 53.00 s

Molecule: CN(C)C1CCCCC1 [N,N-DIMETHYL CYCLOHEXYL AMINE]
- PT REPLICATIONS 1 [1, 6]: 18.9
- PT REPLICATIONS 2 [1, 6]: 20.4
- PT REPLICATIONS 3 [1, 7]: 19.8
- PTT REPLICATIONS 2 [2]: 62.1
- PTT REPLICATIONS 1 [2, 8]: 60.1
- PTT REPLICATIONS 3 [2, 9]: 58.9

Molecule: CCCCN(CCCC)CCCC.O=S(O)O [tri-n-butyl amine bisulfite]
- thrombus formation in the jugular vein (conclusion in words) [3]: definite positive antithrombotic effect

Molecule: C=CCN [ALLYL AMINE HYDROCHLORIDE, reference compound]
- PT 3 [1]: 14.4
- PT 2 [1, 10]: 13.2
- PT 1 [1, 11]: 13.2
- PTT 1 [2]: 31.6
- PTT 3 [2, 12]: 32.4
- PTT 2 [2, 13]: 30.5

Molecule: C[N+](C)(C)C [Tetramethyl Ammonium Bromide, reference compound]
- PT sec. [1]: 12.5 s
- PT (effect in words) ([1]; 0.5 mg/ml): little or no effect
- PTT sec ([2]; 0.5 mg/ml, human plasma, control 38.1): 38.5 s
- PTT (effect in words) ([2]; 0.5 mg/ml): little or no effect

Molecule: benzaldhyde [reference compound]
- PT (effect in words) ([1]; 0.5 mg/ml): minimal effect
- PTT (effect in words) ([2]; 0.5 mg/ml): minimal effect

Molecule: NCCO [ETHANOL AMINE]
- PT REPLICATIONS 1 [1, 6]: 19.3
- PT REPLICATIONS 2 [1, 6]: 20.5
- PT REPLICATIONS 3 [1, 7]: 18.4
- PTT REPLICATIONS 2 [2]: 66.1
- PTT REPLICATIONS 1 [2, 8]: 65.3
- PTT REPLICATIONS 3 [2, 9]: 61.1

Molecule: O=S(O)CO [SO2, Sodium formaldehyde sulfoxalate, reference compound]
- PT [1]: 13.8 s
- PT [1, 4]: 14.94 s
- PTT sec [2, 14]: 45.1 (53.8) sec
- PTT [2, 5]: 49.22 s

Molecule: Sodium thiosulfate [SI6, reference compound]
- PT [1]: 13.5 s
- PTT [2]: 46.2 s

Molecule: CC(C)(C)N [TERT-BUTYL AMINE]
- PT REPLICATIONS 1 [1, 6]: 21.7
- PT REPLICATIONS 2 [1, 6]: 21.8
- PT REPLICATIONS 3 [1, 7]: 21.8
- PTT REPLICATIONS 2 [2]: 68.9
- PTT REPLICATIONS 1 [2, 8]: 68.2
- PTT REPLICATIONS 3 [2, 9]: 69.0

Molecule: Ammonium Sulfite
- PT [1]: 16.08 s
- PT(seconds) Exp. 1 A [1]: 14.7 s
- PT(seconds) Exp. 2 A [1]: 16.9 s
- PTT(seconds) Exp. 1 A [2]: 56.5 s
- PTT [2, 14]: 58.80 s
- PTT(seconds) Exp. 2 A [2]: 65.2 s

Molecule: C=CCN [ALLYL AMINE]
- PT REPLICATIONS 1 [1, 6]: 16.1
- PT REPLICATIONS 2 [1, 6]: 16.0
- PT REPLICATIONS 3 [1, 7]: 15.6
- PTT REPLICATIONS 2 [2]: 46.9
- PTT REPLICATIONS 1 [2, 8]: 47.1
- PTT REPLICATIONS 3 [2, 9]: 44.9

Molecule: Cl.NC1CCCCC1 [CYCLOHEXYL AMINE HYDROCHLORIDE, reference compound]
- PT 2 [1, 10]: 13.6
- PT 1 [1, 11]: 13.8
- PT 3 [1, 15]: 13.5
- PTT 1 [2]: 32.5
- PTT 3 [2, 12]: 34.3
- PTT 2 [2, 13]: 32.7

Molecule: C=CCNCC=C.Cl [DIALLYL AMINE HYDROCHLORIDE, reference compound]
- PT 2 [1, 10]: 13.1
- PT 1 [1, 11]: 12.8
- PT 3 [1, 15]: 13.5
- PTT 1 [2]: 30.5
- PTT 3 [2, 12]: 30.4
- PTT 2 [2, 13]: 30.7

Molecule: C1COCCN1 [MORPHOLINE]
- PT REPLICATIONS 1 [1]: 19.3
- PT REPLICATIONS 2 [1]: 21.0
- PT REPLICATIONS 3 [1]: 17.5
- PTT REPLICATIONS 1 [2]: 66.8
- PTT REPLICATIONS 2 [2]: 61.8
- PTT REPLICATIONS 3 [2]: 51.7

Molecule: Cl.c1ccncc1 [PYRIDINE HYDROCHLORIDE (CRYSTALS), PYRIDINE HYDROCHLORIDE, reference compound]
- PT 1 ([1]; HYDROCHLORIDE): 12.9
- PT 2 ([1]; HYDROCHLORIDE): 12.8
- PT 3 ([1]; HYDROCHLORIDE): 14.0
- PTT 1 ([2]; HYDROCHLORIDE): 31.3
- PTT 2 ([2]; HYDROCHLORIDE): 31.1
- PTT 3 ([2]; HYDROCHLORIDE): 32.2

Molecule: O=S([O-])S(=O)(=O)[O-].[K+].[K+] [Potassium Metabisulfite]
- PT [1]: 18.76 s
- PT(seconds) Exp. 1 A [1]: 18.3 s and 20.4 s
- PT(seconds) Exp. 2 A [1]: 22.0 s
- PT [1, 4]: 19.34 s
- PTT(seconds) Exp. 1 A [2]: 77.6 s and 91.6 s
- PTT [2, 14]: 80.60 s
- PTT(seconds) Exp. 2 A [2]: 111.3 s and 105.2 s
- PTT [2, 5]: 83.84 s

Source: patent publication EP0043274A2, “Antithrombotic treatment” (priority 1980, dated 1982)
